Patent publication US5876715A, “Antibodies that bind novel carbohydrate ligands (myelorollins) that cause E-selectin dependent cell rolling, and uses thereof” (The Biomembrane Institute, priority 1996, dated 1999)
Entries after “also recorded” stand apart in the source; their conditions may differ.

Tested on: E-selectin-expressing CHO cells
Experiment: Rolling and adhesion of E-selectin-expressing CHO cells on ganglioside-coated beads under dynamic flow (parallel plate laminar flow chamber)
Format: cell-based, Chinese hamster
Details: for adhesion of E-selectin-expressing CHO cells / rolling and adhesion of E-selectin-expressing CHO cells / rolling of E-selectin-expressing CHO cells: dynamic flow conditions, shear stress 0.6-12 dynes/cm^2; for rolling and adhesion of E-selectin-expressing CHO cells at low ganglioside quantity: 0.05-0.1 ng ganglioside per spot (mixture 0.05 ng each), 1 μm beads (FIGS. 3B, 4A, 4B); for rolling and adhesion of E-selectin-expressing CHO cells at 100 ng ganglioside: 100 ng of single fraction or mixture of 50 ng each, 1 μm beads, 4.8 and 2.4 dynes/cm^2 (FIG. 3A)
Source text: FIGS. 2A-2E show rolling and adhesion of E-selectin-expressing CHO cells to polystyrene beads coated with various gangliosides under dynamic flow conditions. Various poly-LacNac gangliosides were quantitatively adsorbed on beads affixed to glass microscope slides as described in the Materials & Methods section in the EXAMPLE. These polystyrene beads affixed on galss plates are resistant to dynamic flow. GSL coated on beads are therefore very stable in dynamic flow. Slides were blocked by placing 2% BSA in PBS at room temp for 1 hr, and assembled in a parallel-plate laminar-flow chamber. E-selectin-expressing CHO cells were freshly harvested and suspended in RPMI medium (1×10^5 cells/mL). The cell suspensions were placed in an infusion pump connected to the flow chamber, and infused into the assembly at various laminar flow rates. Cell movements were observed under phase-contrast microscope and recorded by videocassette recorder. Numbers of rolling cells (.smallcircle.) and adherent (nonrolling) cells (.circle-solid.), in at least 10 microscope fields, at four different shear stresses (dynes/cm^2; see abscissa), were plotted.
Polystyrene latex beads ([…] or 1 μm) used as carriers of GSLs as above were suspended in ethanol. 1 μL aliquots of suspension were placed on precleaned and specially treated microscope slides (Labcraft Superfrost® Plus, Curtin Matheson Scientific, Houston, Tex.). Beads were distributed homogeneously on the glass surface within a circular spot with diameter about 1 cm. Slides were heated at 150° C. for 50 sec, which caused the beads to adhere strongly to the surface such that they could not be washed off by water stream at various velocities. Gangliosides dissolved in IHW at the same molar concentration were applied to latex beads affixed on the slides; namely, 1 μL aliquots containing 50-100 or 0.05-0.1 ng ganglioside were placed on the center of a circular spot. The ganglioside thus became affixed to the bead surface.
Slides prepared as above, as they are or after treatment consisted of incubating said slides for at least an hour at room temperature with 3% BSA prewarmed at 37° C. and washing with PBS containing CA^2+ /Mg^2+ (i.e., PBS(+)) were placed in a parallel plate laminar flow chamber connected to an infusion pump (model 935, Harvard Apparatus, Cambridge, Mass.). The assembly, originally described by Lawrence et al. (Lawrence et al., 1990, Blood 75:227-237; Lawrence and Springer, 1991, Cell 65:859-873), simulates the flow shear stress present in physiological microvascular environments. A laminar flow with defined rate and wall shear stress is achieved by manipulation of the infusion pump, which is connected to the inlet of the flow chamber. A suspension of E- or P-selectin-expressing CHO cells (1×10^5 /mL in FIGS. 2A-2E, 2×10^5/ cells mL in FIG. 3A, 5×10^5 /cells mL in FIGS. 3B, 4A and 4B), freshly harvested from culture with EDTA, washed, and resuspended in 1% FCS-RPMI medium, was infused into the assembly at various laminar flow rates. Cell movements were observed under inverted phase-contrast microscope (Diaphot-TMD, Nikon) and recorded by time-lapse videocassette recorder. Cell rolling and adhesion were observed, and numbers of rolling and adherent cells during a 2 min period at shear stresses, from 0.6-12.0 dynes/cm^2 were counted from at least 10 fields on videotape. Wall shear stress (T) was calculated by the equation of Lawrence et al. (Lawrence et al., 1990 Blood 75:227-237; Lawrence et al., 1987, Blood 70: 1284-1290): T=3 μQ/2ba^2, where μ=coefficient of viscosity (1.0 cP), Q=volumetric flow rate (cm^3 /sec), a=half channel height (in this case, 5.7×10^-3 cm), and b=channel width (1.3 cm).
10, 13-1, and 14 (containing Str. 4-5, Str. 7-8, and Str. 9-12 in Table 1, respectively). […] 10 and 14, which have myelorollin structure and lack SLe^x epitope (FIG. 4). Polystyrene beads were affixed to glass microscope slides. Various gangliosides were coated as described in Materials & Methods. […]

Substance: VI^3 NeuAcnLc6 Cer [Fr. 7]
- adhesion of E-selectin-expressing CHO cells: no cell adhesion

Substance: VI^3 NeuAcV^3 FucIII^3 FucnLc6 Cer [SLe^x -Le^x, reference compound]
- adhesion of E-selectin-expressing CHO cells: Low level of adhesion without rolling; also recorded: adherent, but not rolling; also recorded: significantly lower than for Fr. 13-1 or 14; also recorded: only weak adhesion compared to Fr. 10-1, 10-2, 13-1 and 14; also recorded: relatively weak adhesion compared to Fr. 10-1, 10-2, 13-1, and 14
- rolling and adhesion of E-selectin-expressing CHO cells: weaker than myelorollin structures; also recorded: weaker than myeloglycan or myelorollin structures
- rolling of E-selectin-expressing CHO cells: not observed (or barely observed); also recorded: No rolling was observed
- adhesion of E-selectin-expressing CHO cells (listed as Str. 3): did produce cell adhesion, but to a lesser extent than the myelorollin fractions; also recorded: lower level of adhesion
- rolling of E-selectin-expressing CHO cells (listed as Str. 3): no cell rolling
- rolling of E-selectin-expressing CHO cells (listed as sialyl Le^x -Le^x): No rolling was observed
- rolling number (dynamic flow, 4 μm beads, every field at all shear stresses (FIG. 2A)): 0
- number of cells adhered without rolling (dynamic flow, shear stresses 12 to 1.2 dynes/cm^2 (FIG. 6A)): less than 5 /field
- rolling and adhesion of E-selectin-expressing CHO cells at low ganglioside quantity (dynamic flow): no rolling or adhesion; also recorded: no rolling and adhesion observed; also recorded: essentially no cell rolling and adhesion; also recorded: did not cause any E-selectin-dependent cell rolling or adhesion

Substance: VIII^3 NeuAcV^3 FucnLc8 Cer [Fr. 10-1]
- rolling and adhesion of E-selectin-expressing CHO cells: strong rolling and adhesion
- rolling and adhesion of E-selectin-expressing CHO cells at 100 ng ganglioside (dynamic flow): comparable rolling and Vadhesion; also recorded: comparable to each other; also recorded: comparable adhesion
- rolling and adhesion of E-selectin-expressing CHO cells at 100 ng ganglioside (dynamic flow, listed as 10-1): comparable
- rolling and adhesion of E-selectin-expressing CHO cells at low ganglioside quantity (dynamic flow): did not

Substance: X^3 NeuAcVII^3 FucnLc10 Cer [Fr. 12-2]
- Number of E-selectin expressing cells adhered on myelorollin under dynamic flow, column 5 (0.6-1.2 dynes/cm^2, column head 5 (not explained)): 5 (±2)
- Number of E-selectin expressing cells adhered on myelorollin under dynamic flow, column 10 (0.6-1.2 dynes/cm^2, column head 10 (not explained)): 3 (±1)
- rolling and adhesion of E-selectin-expressing CHO cells: lower than for Frs. 13-1 and 14 (FIGS. 2C and 2E), but comparable to SLe^x -Le^x; also recorded: lower than for Fr. 13-1 and 14 (FIG. 2C and FIG. 2E), but comparable to SLe^x -Le^x
- shear stress at which rolling was highest (dynamic flow, ganglioside on 4 μm beads (FIG. 2B)): 4.8 dynes/cm^2

Substance: X^3 NeuAcVII^3 FucV^3 FucnLc10 Cer [Fr. 13-1]
- rolling of E-selectin-expressing CHO cells: more frequent at 4.8 and 2.4 than at 1.2 dynes/cm^2; also recorded: caused strong rolling
- shear stress at which plain rolling and rolling followed by adhesion was maximal / most clearly observed (dynamic flow, 12, 4.8, 2.4, 1.2 and 0.6 dynes/cm^2 (FIGS. 6A-6D)): 2.4 dynes/cm^2
- shear stress at which rolling (rolling/adhesion) was highest (dynamic flow, ganglioside on 1 μm beads (FIGS. 2D, 2E)): 4.8 dynes/cm^2

Substance: VIII^3 NeuAcIII^3 FucnLc8 Cer [Fr. 10-2]
- rolling and adhesion of E-selectin-expressing CHO cells: strong rolling and adhesion
- rolling and adhesion of E-selectin-expressing CHO cells at 100 ng ganglioside (dynamic flow): comparable rolling and Vadhesion; also recorded: comparable to each other; also recorded: comparable adhesion
- rolling and adhesion of E-selectin-expressing CHO cells at 100 ng ganglioside (dynamic flow, listed as 10-2): comparable
- rolling and adhesion of E-selectin-expressing CHO cells at low ganglioside quantity (dynamic flow): still produced marked rolling and adhesion
- rolling and adhesion of E-selectin-expressing CHO cells at low ganglioside quantity (dynamic flow, listed as 10-2): still produced marked rolling/adhesion
